Experiments:
Leishmania donovani [1] = experiment: microbe, parasite or virus in culture; format: functional; details: 1S-C12d, THP-1
Description: Growth inhibition of Leishmania donovani MHOM/SD/1962/1S-C12d axenic amastigotes in infected THP1 macrophages at 5 uM by alamar blue viability assay

THP-1 [2] = experiment: Toxicity against human THP1 cells at 5 uM by alamar blue viability assay; details: thp-1, 5 µM
Leishmania donovani [3] = experiment: microbe, parasite or virus in culture; format: functional; details: 1S-C12d
Description: Antileishmanial activity against Leishmania donovani MHOM/SD/1962/1S-C12d axenic amastigotes at 15 uM by alamar blue viability assay

Leishmania donovani [4] = experiment: microbe, parasite or virus in culture; format: functional; details: 1S-C12d; remark: listed apart in the source
Description: Antileishmanial activity against Leishmania donovani MHOM/SD/1962/1S-C12d axenic amastigotes by alamar blue viability assay

[5] = Inhibition of fumarate reductase in crude mitochondria fraction of Leishmania major promastigotes
[6] = Inhibition of fumarate reductase in permeabilized Leishmania major promastigotes
Leishmania donovani [7] = experiment: Growth inhibition of Leishmania donovani MHOM/SD/1962/1S-C12d […] amastigotes in infected THP1 macrophages at 1 uM by alamar blue viability assay; format: functional; details: THP-1
THP-1 [8] = experiment: Toxicity against human THP1 cells at 1 uM by alamar blue viability assay; format: cell-based; details: thp-1, 1 µM
[9] = Toxicity against mouse macrophages at 10 uM; format: cell-based; details: macrophage
Leishmania donovani [10] = experiment: Inhibition of Leishmania donovani infection in mouse macrophages; format: functional; details: read-out: ED50 (the source's name)

`CC(=O)/C=C/c1ccc2c(c1)-c1[nH]c3ccc(F)cc3c1CC(=O)N2` gave an inhibition at 5 µM (Leishmania donovani [1]) of 0%, an Activity (THP-1 [2]) of 0% and an inhibition at 15 µM (Leishmania donovani [3]) of 45.4%.
In the case of `CC(C)(C)c1ccc2[nH]c3c(c2c1)CC(=O)Nc1ccc(/C=C/C(=O)c2ccccc2)cc1-3`, the inhibition at 5 µM (Leishmania donovani [1]) is reported as 61.8%, the GI50 (Leishmania donovani [4]) is reported as 1.1 µM and the Activity (THP-1 [2]) is reported as 0%. It also gave an inhibition at 15 µM (Leishmania donovani [3]) of 99%.
`CC(=O)/C=C/c1ccc2c(c1)-c1[nH]c3ccc(C#N)cc3c1CC(=O)N2` gave an inhibition at 5 µM (Leishmania donovani [1]) of 0%, an Activity (THP-1 [2]) of 48% and an inhibition at 15 µM (Leishmania donovani [3]) of 9.8%.
Work on `CC(C)(C)c1ccc2[nH]c3c(c2c1)CC(=O)Nc1ccc(C#Cc2ccccc2)cc1-3` yielded an inhibition at 5 µM (Leishmania donovani [1]) of 72%, a GI50 (Leishmania donovani [4]) of 0.86 µM and an Activity (THP-1 [2]) of 9%. It also gave an inhibition at 15 µM (Leishmania donovani [3]) of 79.6%.
Molecule `C=CC(C)(C)c1cc(/C=C/C(=O)c2ccc(O)cc2)c(OC)cc1O` [LICOAGROCHACONE A] has an IC50 [5] of 1.4 µM and an IC50 [6] of 1.2 µM.
`CC(=O)/C=C/c1ccc2c(c1)-c1[nH]c3ccc(C)cc3c1CC(=O)N2` showed an inhibition at 5 µM (Leishmania donovani [1]) of 0%, a GI50 (Leishmania donovani [4]) of 12 µM and an Activity (THP-1 [2]) of 0%. For the same molecule, the inhibition at 15 µM (Leishmania donovani [3]) was 65.2%.
Molecule `C[C@@H]1[C@H](O)[C@@H](C)/C=C/C=C/C=C/C=C/C=C/C=C/C=C/[C@H](O[C@@H]2O[C@H](C)[C@@H](O)[C@H](N)[C@@H]2O)C[C@@H]2O[C@](O)(C[C@@H](O)C[C@@H](O)[C@H](O)CC[C@@H](O)C[C@@H](O)CC(=O)O[C@H]1C)C[C@H](O)[C@H]2C(=O)O` (stereo in doubt) [AMPHOTERICIN B] has an inhibition at 1 µM (Leishmania donovani [7]) greater than 90% and an Activity (THP-1 [8]) greater than 90%.
For `COc1ccc(C(=O)/C=C/c2ccc(NC(C)=O)cc2)cc1`, the inhibition at 15 µM (Leishmania donovani [3]) was 69.6%.
`CC(=O)/C=C/c1ccc2c(c1)-c1[nH]c3ccc(C(C)(C)C)cc3c1CC(=O)N2` gave an inhibition at 5 µM (Leishmania donovani [1]) of 56.2%, a GI50 (Leishmania donovani [4]) of 2.8 µM and an Activity (THP-1 [2]) of 62%. For the same molecule, the inhibition at 15 µM (Leishmania donovani [3]) was 99%.
Work on `COc1ccc(C(=O)/C=C/c2ccc3c(c2)-c2[nH]c4ccc(C(C)(C)C)cc4c2CC(=O)N3)cc1` yielded an inhibition at 5 µM (Leishmania donovani [1]) of 71.7%, a GI50 (Leishmania donovani [4]) of 1.2 µM and an Activity (THP-1 [2]) of 0%. The inhibition at 15 µM (Leishmania donovani [3]) was 97.5%.
In the case of `COc1ccc(C(=O)/C=C/c2ccc3c(c2)-c2[nH]c4ccc(C(C)(C)C)cc4c2CC(=O)N3)cc1OC`, the inhibition at 5 µM (Leishmania donovani [1]) is reported as 86%, the GI50 (Leishmania donovani [4]) is reported as 1 µM and the Activity (THP-1 [2]) is reported as 49.7%. The inhibition at 15 µM (Leishmania donovani [3]) was 95.5%.
Work on `CC(C)(C)c1ccc2[nH]c3c(c2c1)CC(=O)Nc1ccc(/C=C/C(=O)c2ccc(Cl)cc2)cc1-3` yielded an inhibition at 5 µM (Leishmania donovani [1]) of 76.8%, a GI50 (Leishmania donovani [4]) of 1.2 µM and an Activity (THP-1 [2]) of 0%. The inhibition at 15 µM (Leishmania donovani [3]) was 98.3%.
Molecule `O=C1Cc2c([nH]c3ccccc23)-c2cc(/C=C/C(=O)c3ccccc3)ccc2N1` has an inhibition at 5 µM (Leishmania donovani [1]) of 0%, a GI50 (Leishmania donovani [4]) of 5 µM and an Activity (THP-1 [2]) of 0%. It also gave an inhibition at 15 µM (Leishmania donovani [3]) of 99.6%.
In the case of `N#Cc1ccc2[nH]c3c(c2c1)CC(=O)Nc1ccccc1-3` [PAULLONE 2], the Activity [9] is reported as “Toxic” and the EC50 (Leishmania donovani [10]) is reported as 19.6 µM.
`COc1ccc(OC)c(C(=O)/C=C/c2ccc3c(c2)-c2[nH]c4ccc(C(C)(C)C)cc4c2CC(=O)N3)c1` gave an inhibition at 5 µM (Leishmania donovani [1]) of 93.8%, a GI50 (Leishmania donovani [4]) of 1.1 µM and an Activity (THP-1 [2]) of 95.7%. It also gave an inhibition at 15 µM (Leishmania donovani [3]) of 96.8%.
For `CC(C)(C)c1ccc2[nH]c3c(c2c1)CC(=O)Nc1ccc(/C=C/C#N)cc1-3`, the inhibition at 5 µM (Leishmania donovani [1]) was 47.3%, the GI50 (Leishmania donovani [4]) was 3.6 µM and the Activity (THP-1 [2]) was 0%. For the same molecule, the inhibition at 15 µM (Leishmania donovani [3]) was 63.8%.
Molecule `CC(C)(C)c1ccc2[nH]c3c(c2c1)CC(=O)Nc1ccc(/C=C/C(=O)c2cccnc2)cc1-3` has an inhibition at 5 µM (Leishmania donovani [1]) of 76.2%, a GI50 (Leishmania donovani [4]) of 0.78 µM and an Activity (THP-1 [2]) of 0%. The inhibition at 15 µM (Leishmania donovani [3]) was 98.1%.
`CC(C)(C)c1ccc2[nH]c3c(c2c1)CC(=O)Nc1ccc(/C=C/C(=O)c2ccco2)cc1-3` gave an inhibition at 5 µM (Leishmania donovani [1]) of 76.2%, a GI50 (Leishmania donovani [4]) of 0.76 µM and an Activity (THP-1 [2]) of 3.3%. For the same molecule, the inhibition at 15 µM (Leishmania donovani [3]) was 97.6%.
For `CC(C)(C)c1ccc2[nH]c3c(c2c1)CC(=O)Nc1ccc(/C=C/C(=O)c2cccs2)cc1-3`, the inhibition at 5 µM (Leishmania donovani [1]) was 79.3%, the GI50 (Leishmania donovani [4]) was 1 µM and the Activity (THP-1 [2]) was 60.5%. It also gave an inhibition at 15 µM (Leishmania donovani [3]) of 98.8%.
In the case of `CC(=O)/C=C/c1ccc2c(c1)-c1[nH]c3ccccc3c1CC(=O)N2`, the inhibition at 5 µM (Leishmania donovani [1]) is reported as 11.4%, the GI50 (Leishmania donovani [4]) is reported as 3.4 µM and the Activity (THP-1 [2]) is reported as 0%. It also gave an inhibition at 15 µM (Leishmania donovani [3]) of 98.7%.
With `COc1ccc(C(=O)/C=C/c2ccc3c(c2)-c2[nH]c4ccc(C(C)(C)C)cc4c2CC(=O)N3)c(OC)c1` the inhibition at 5 µM (Leishmania donovani [1]) was 85.6%, the GI50 (Leishmania donovani [4]) was 0.84 µM and the Activity (THP-1 [2]) was 0%. It also gave an inhibition at 15 µM (Leishmania donovani [3]) of 93.6%.
For `CC(C)(C)c1ccc2[nH]c3c(c2c1)CC(=O)Nc1ccc(/C=C/C(=O)c2ccc(O)cc2)cc1-3`, the inhibition at 5 µM (Leishmania donovani [1]) was 54.8%, the GI50 (Leishmania donovani [4]) was 3 µM and the Activity (THP-1 [2]) was 80.3%. It also gave an inhibition at 15 µM (Leishmania donovani [3]) of 97.2%.
`COc1cc(C(=O)/C=C/c2ccc3c(c2)-c2[nH]c4ccc(C(C)(C)C)cc4c2CC(=O)N3)cc(OC)c1OC` gave an inhibition at 5 µM (Leishmania donovani [1]) of 99.2%, a GI50 (Leishmania donovani [4]) of 1.1 µM and an Activity (THP-1 [2]) of 92.7%. The inhibition at 15 µM (Leishmania donovani [3]) was 96.8%.
With `Cc1ccc2[nH]c3c(c2c1)CC(=O)Nc1ccc(/C=C/C(=O)c2ccc(Cl)cc2)cc1-3` the inhibition at 5 µM (Leishmania donovani [1]) was 0%, the Activity (THP-1 [2]) was 0% and the inhibition at 15 µM (Leishmania donovani [3]) was 17.4%.
